In PubChem BioAssay AID248 (DTP/NCI, 2004):
Toxic doses and inconclusive results are not listed. No stated cut-off is given here; in the data, active means T/C of 150% or more; inactive means T/C below 125%.

System: L1210 leukemia ip in BDF1 mice, survival T/C
Assay: NCI In Vivo Anticancer Drug Screen. Data for tumor model L1210 Leukemia (intraperitoneal) in B6D2F1 (BDF1) mice
Conditions: endpoint: mean survival time, higher = longer survival
How it was run: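 Transplanted-tumor mice were given test agent; controls received vehicle only. Survival readings from the two groups were divided (treated over control).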

[1] = dose: 100.0 mg/kg/injection, schedule: Q01DX009 (ip), vehicle: saline with Tween-80
[2] = dose: 100.0 mg/kg/injection, schedule: Q04DX002 (ip), vehicle: Klucel (hydroxypropylcellulose) (HPC)
[3] = dose: 200.0 mg/kg/injection, schedule: Q04DX002 (ip), vehicle: Klucel (hydroxypropylcellulose) (HPC)
[4] = dose: 400.0 mg/kg/injection, schedule: Q04DX002 (ip), vehicle: Klucel (hydroxypropylcellulose) (HPC)
[5] = dose: 200.0 mg/kg/injection, schedule: Q01DX009 (ip), vehicle: saline with Tween-80
[6] = dose: 400.0 mg/kg/injection, schedule: Q01DX009 (ip), vehicle: saline with Tween-80

Measured: T/C

ClC1=C(Cl)C(Cl)(Cl)C1(Cl)Cl
inactive: dose: 75.0 mg/kg/injection, schedule: Q01DX001 (ip), vehicle: carboxymethylcellulose (CMC) 109 % of control

CC(=O)/C(=C\N(C)C)C(=O)Nc1ccccn1
inactive: dose: 100.0 mg/kg/injection, schedule: Q01DX001 (ip), vehicle: saline with Tween-80 98 % of control | dose: 200.0 mg/kg/injection, schedule: Q01DX001 (ip), vehicle: saline with Tween-80 101 % of control | dose: 400.0 mg/kg/injection, schedule: Q01DX001 (ip), vehicle: saline with Tween-80 93 % of control

CCCCCCCCc1cc[n+](C2=C([O-])c3ccccc3C(=O)C2=O)cc1
inactive: dose: 1.5 mg/kg/injection, schedule: Q01DX009 (ip), vehicle: saline 106 % of control | dose: 3.0 mg/kg/injection, schedule: Q01DX009 (ip), vehicle: saline 95 % of control | dose: 6.0 mg/kg/injection, schedule: Q01DX009 (ip), vehicle: saline 106 % of control

Oc1ccccc1C=Nc1ccccc1S.[Cu+2]
inactive: dose: 100.0 mg/kg/injection, schedule: Q01DX001 (ip), vehicle: other 97 % of control | dose: 200.0 mg/kg/injection, schedule: Q01DX001 (ip), vehicle: other 94 % of control | dose: 400.0 mg/kg/injection, schedule: Q01DX001 (ip), vehicle: other 96 % of control

C1=C\C2CC2CCCC/1 (stereo not given)
inactive: dose: 12.5 mg/kg/injection, schedule: Q01DX005 (ip), vehicle: saline with Tween-80 86 % of control | dose: 25.0 mg/kg/injection, schedule: Q01DX005 (ip), vehicle: saline with Tween-80 96 % of control | dose: 25.0 mg/kg/injection, schedule: Q01DX009 (ip), vehicle: saline with Tween-80 98 % of control | dose: 50.0 mg/kg/injection, schedule: Q01DX005 (ip), vehicle: saline with Tween-80 89 % of control | dose: 50.0 mg/kg/injection, schedule: Q01DX009 (ip), vehicle: saline with Tween-80 94 % of control | [1] 102 % of control

N=C1SCCS1
inactive: dose: 100.0 mg/kg/injection, schedule: Q04DX002 (ip), vehicle: saline 92 % of control | dose: 200.0 mg/kg/injection, schedule: Q04DX002 (ip), vehicle: saline 101 % of control | dose: 400.0 mg/kg/injection, schedule: Q04DX002 (ip), vehicle: saline 105 % of control

CCc1ccc(N=Nc2c(F)c(F)c(NC(C)=O)c(F)c2F)cc1
inactive: dose: 100.0 mg/kg/injection, schedule: Q01DX001 (ip), vehicle: carboxymethylcellulose (CMC) 102 % of control | dose: 200.0 mg/kg/injection, schedule: Q01DX001 (ip), vehicle: carboxymethylcellulose (CMC) 91 % of control | dose: 400.0 mg/kg/injection, schedule: Q01DX001 (ip), vehicle: carboxymethylcellulose (CMC) 91 % of control

O=C1/C(=C\c2ccc(OCc3ccccc3)c(OCc3ccccc3)c2)N2CCC1CC2
inactive: [2] 102 % of control | [3] 115 % of control | [4] 105 % of control

COc1ccc(C(C(N)=O)N2CCCCC2)cc1 (stereo not given)
inactive: dose: 100.0 mg/kg/injection, schedule: Q01DX009 (ip), vehicle: Klucel (hydroxypropylcellulose) (HPC) 95 % of control | dose: 100.0 mg/kg/injection, schedule: Q04DX003 (ip), vehicle: Klucel (hydroxypropylcellulose) (HPC) 107 % of control | dose: 200.0 mg/kg/injection, schedule: Q01DX009 (ip), vehicle: Klucel (hydroxypropylcellulose) (HPC) 88 % of control | dose: 200.0 mg/kg/injection, schedule: Q04DX003 (ip), vehicle: Klucel (hydroxypropylcellulose) (HPC) 94 % of control | dose: 400.0 mg/kg/injection, schedule: Q01DX009 (ip), vehicle: Klucel (hydroxypropylcellulose) (HPC) 91 % of control | dose: 400.0 mg/kg/injection, schedule: Q04DX003 (ip), vehicle: Klucel (hydroxypropylcellulose) (HPC) 102 % of control

Nc1ncnc(N)c1NC(=O)c1ccc(Cl)c(Cl)c1
inactive: dose: 75.0 mg/kg/injection, schedule: Q01DX001 (ip), vehicle: saline with Tween-80 102 % of control | dose: 150.0 mg/kg/injection, schedule: Q01DX001 (ip), vehicle: saline with Tween-80 98 % of control | dose: 300.0 mg/kg/injection, schedule: Q01DX001 (ip), vehicle: saline with Tween-80 96 % of control

Cc1cc(C(=O)C(=O)OC(c2ccccc2)c2ccccc2)c(CN2C(=O)c3ccccc3C2=O)c(=O)n1C
inactive: dose: 25.0 mg/kg/injection, schedule: Q04DX002 (ip), vehicle: saline with Tween-80 101 % of control | dose: 50.0 mg/kg/injection, schedule: Q04DX002 (ip), vehicle: saline with Tween-80 108 % of control | dose: 100.0 mg/kg/injection, schedule: Q04DX002 (ip), vehicle: saline with Tween-80 108 % of control

N#C/C(=C/c1ccccc1Cl)C(N)=O
inactive: [1] 100 % of control | [2] 100 % of control | [5] 94 % of control | [3] 93 % of control | [6] 94 % of control | [4] 107 % of control

CCc1nc2c(OC)ccc(OC)c2[nH]c1=O
inactive: dose: 100.0 mg/kg/injection, schedule: Q04DX003 (ip), vehicle: other 103 % of control | dose: 200.0 mg/kg/injection, schedule: Q04DX003 (ip), vehicle: other 103 % of control | dose: 400.0 mg/kg/injection, schedule: Q04DX003 (ip), vehicle: other 106 % of control

CN(CC(=O)c1ccc(-c2ccccc2)cc1)C(=O)c1ccccc1
inactive: dose: 75.0 mg/kg/injection, schedule: Q04DX003 (ip), vehicle: Klucel (hydroxypropylcellulose) (HPC) 96 % of control | dose: 150.0 mg/kg/injection, schedule: Q04DX003 (ip), vehicle: Klucel (hydroxypropylcellulose) (HPC) 89 % of control | dose: 300.0 mg/kg/injection, schedule: Q04DX003 (ip), vehicle: Klucel (hydroxypropylcellulose) (HPC) 89 % of control

CN1Cc2cc3cc(c2O)C[N+](C)(C)Cc2c(Cl)c(c(Cl)c(c2Cl)C[N+](C)(C)C3)C1
inactive: dose: 12.5 mg/kg/injection, schedule: Q01DX009 (ip), vehicle: saline 98 % of control | dose: 12.5 mg/kg/injection, schedule: Q04DX003 (ip), vehicle: saline 97 % of control | dose: 25.0 mg/kg/injection, schedule: Q01DX009 (ip), vehicle: saline 98 % of control | dose: 25.0 mg/kg/injection, schedule: Q04DX003 (ip), vehicle: saline 97 % of control | dose: 50.0 mg/kg/injection, schedule: Q04DX003 (ip), vehicle: saline 92 % of control

CC1=Nc2onc(C)c2N=C(C)C1
inactive: [1] 109 % of control | dose: 100.0 mg/kg/injection, schedule: Q04DX003 (ip), vehicle: saline with Tween-80 100 % of control | [5] 94 % of control | dose: 200.0 mg/kg/injection, schedule: Q04DX003 (ip), vehicle: saline with Tween-80 93 % of control | [6] 96 % of control | dose: 400.0 mg/kg/injection, schedule: Q04DX003 (ip), vehicle: saline with Tween-80 95 % of control
